This passage reports GI50 and TGI results from PubChem BioAssay (NCI).

Test in all cases: NCI-60 cell line screen, 48 h
The subject of experiment [1] is CCRF-CEM leukemia.
Experiment [2] concerns HCT-15 colon.
Experiment [3] relates to SF-295 CNS.
Experiment [4] deals with SF-268 CNS.
Experiment [5] deals with MCF7 breast.
For experiment [6], the system named is OVCAR-4 ovarian.
Experiment [7] has as its system UACC-62 melanoma.
In experiment [8] the test system is PC-3 prostate.
For experiment [9], the system named is RPMI-8226 leukemia.
The test system of experiment [10] is ACHN renal.

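Dose response: 5 concentrations. Exposure: 48 h. Format: 96-well plates. Endpoint: linear interpolation; highest concentration if not reached. GI50 is the concentration that inhibits growth by half. TGI: total growth inhibition.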

With `CN1CCc2nc3sc(C(N)=O)c(N)c3c(-c3cccs3)c2C1`, the GI50 in experiment [1] is 3.77 µM; in [2], 3.31 µM; in experiment [3], 3.61 µM; in experiment [4], 3.85 µM; in experiment [5], 4.1 µM; in experiment [6], 7.38 µM. The GI50 in experiment [7] was 2.38 µM; in experiment [8], 4.58 µM; in experiment [9], 4.41 µM. Moreover, the TGI in experiment [1], in experiment [2], in experiment [3], in [4], in experiment [5] and in experiment [6] was above 100 µM in each case. The TGI in [7] is 6.56 µM; in [8], above 100 µM; in experiment [9], above 100 µM.

As for `CC(=O)O[C@@H]1C[C@@]2(C)[C@@H]3CC=C4[C@@H](C[C@H](O)C(=O)C4(C)C)[C@]3(C)C(=O)C[C@]2(C)[C@H]1[C@@](C)(O)C(=O)/C=C/C(C)(C)OC(C)=O`, the TGI is above 69.2 µM in experiment [1]; 12.3 µM in experiment [2]; 34.1 µM in experiment [3]; 3.44 µM in [10]; above 41.9 µM in [4]; above 100 µM in [5]. Further, the TGI was above 32.3 µM in experiment [6], 27.9 µM in experiment [7], above 47 µM in experiment [8] and above 32.2 µM in experiment [9].

For the compound `Fc1ccc(/C=N/n2c(-c3ccc(F)c(Cl)c3)n[nH]c2=S)cc1`, the GI50 in experiment [1] was 32.2 µM; in [3], 31.7 µM; in experiment [4], 19.8 µM; in [5], 19.7 µM; in experiment [6], 19.9 µM; in experiment [7], 22.8 µM. Further, the figures for the GI50 in experiment [8] and in experiment [9] were 27.3 µM and 19.8 µM, respectively. Moreover, the TGI in experiment [1] was 96.6 µM; in experiment [3], 76.8 µM; in experiment [4], 42.1 µM; in experiment [5], 43 µM; in experiment [6] it was 39.9 µM; in experiment [7], 49 µM. The TGI is above 100 µM in experiment [8] and 43.2 µM in experiment [9].

On to `Cc1ccc(C2C3Cc4ccccc4C3=NN2c2ccc(S(=O)(=O)/N=c3\scc(-c4ccccc4)n3-c3ccccc3)cc2)cc1` (stereo not given), for which the GI50 was 17.1 µM in experiment [1]; 25.4 µM in experiment [2]; 19.1 µM in [3]; 21.6 µM in experiment [10]; 16.7 µM in experiment [4]; 5.71 µM in [5]. The values for the GI50 in experiment [7], in experiment [8] and in experiment [9] were 14 µM, 21.3 µM and 13.4 µM, respectively. The TGI came out at 44 µM in experiment [1]; 79.2 µM in experiment [2]; 40.1 µM in [3]; 50.3 µM in [10]; 42 µM in experiment [4]; 33.7 µM in [5]. Further, the values for the TGI in experiment [7], in experiment [8] and in experiment [9] were 27.7 µM, 53.2 µM and 35.6 µM, respectively.

As for `CC(CO)(Nc1ccc([N+](=O)[O-])cc1[N+](=O)[O-])C(=O)O` (stereo not given), the TGI is 31.4 µM in [2]; above 100 µM in experiment [3]; 32.7 µM in [10]; 48.9 µM in [4]; 32.1 µM in [5]; above 100 µM in [7]. In addition, the TGI in experiment [8] and in [9] was above 100 µM each time.

`Cn1ccnc1Oc1ccc(Cl)cc1`: the TGI in [2] is 23.9 µM; in experiment [10] it was 25.4 µM; in [4], 99.4 µM; in [5], 38.3 µM; in experiment [6], 19.8 µM; in experiment [7], 23.5 µM. Further, the figures for the TGI in experiment [8] and in [9] were 34.2 µM and 2.85 µM, respectively.

Turning to `C/C(=N\O)c1cccc(Nc2cc(-n3ccnc3)c3ccccc3n2)c1`, the GI50 in experiment [1] was 24.9 µM; in experiment [2], 9.26 µM; in [3], 8.16 µM; in experiment [10], 7.31 µM; in experiment [4], above 100 µM; in experiment [5] it was above 100 µM. Besides, the GI50 in [7] was 6.63 µM; in [8], 24.8 µM; in [9], 21.2 µM. For the same compound, the TGI in experiment [1] is 64.5 µM; in [2], 22.6 µM; in experiment [3], 22.8 µM; in experiment [10] it was 19.4 µM; in [4] it was above 100 µM; in [5] it was above 100 µM. Also, the TGI in experiment [7] is 19.5 µM; in experiment [8] it was 76.6 µM; in experiment [9], above 100 µM.

Turning to `Cc1ccncc1C(N)=O`, the GI50 in experiment [1], in experiment [2], in [3], in experiment [10], in experiment [4] and in experiment [5] was above 100 µM in each case. Further, the GI50 in [7], in experiment [8] and in experiment [9] was above 100 µM throughout. For the same compound, the TGI in [1], in experiment [2], in [3], in [10], in [4] and in experiment [5] was above 100 µM throughout. The TGI in experiment [7], in experiment [8] and in experiment [9] was above 100 µM in each case.

For the compound `COc1cc(-c2nn(-c3cccc(NC(=O)CCN4CCN(Cc5ccccc5)CC4)c3)cc2-c2ccncc2)ccc1Cl`, the GI50 in experiment [1] is 0.691 µM; in experiment [2], 0.635 µM; in experiment [3], 0.482 µM; in experiment [10], 1.2 µM; in experiment [4] it was 1.05 µM; in experiment [5], 0.386 µM. Besides, the GI50 is 1.8 µM in [6], 1.13 µM in experiment [7] and 0.709 µM in experiment [8]. Further, the TGI in experiment [1] is above 100 µM; in experiment [2] it was 3.72 µM; in experiment [3], 1.95 µM; in experiment [10], 12.8 µM; in experiment [4] it was 3.84 µM; in [5], 3.27 µM. In addition, the TGI was 41 µM in experiment [6], 2.7 µM in experiment [7] and 11.6 µM in experiment [8].

For `COc1ccc(/C=C(\C)[N+](=O)[O-])cc1OC`, the GI50 in experiment [2] is 1.4 µM; in experiment [3] it was 17.8 µM; in experiment [10], 1.69 µM; in [4] it was 2.26 µM; in [5] it was 1.35 µM; in experiment [6], 1.97 µM. In addition, the GI50 was 1.82 µM in experiment [7], 2.75 µM in experiment [8] and 2.3 µM in [9]. The TGI in [2] worked out at 3.54 µM; in experiment [3] it was 32.3 µM; in [10], 3.16 µM; in experiment [4], 5.46 µM; in experiment [5], 3.25 µM; in [6], 4.91 µM. The TGI is 3.87 µM in [7], 7.07 µM in experiment [8] and 5.59 µM in experiment [9].

Regarding `Nc1n[nH]c2ccc([C@@H]3Nc4cc5c(cc4[C@H]4C6CCC(C6)[C@@H]34)C(=O)NC5)cc12` (stereo not given in full), the GI50 in experiment [1] was 0.323 µM; in experiment [2] it was 0.601 µM; in experiment [3] it was 0.323 µM; in experiment [10], 0.726 µM; in experiment [4], 1.04 µM; in experiment [5], 0.18 µM. Besides, the GI50 in [6] is 1.37 µM; in experiment [7], 0.408 µM; in [8] it was 0.471 µM. Further, the TGI was above 100 µM in [1]; above 100 µM in experiment [2]; above 42 µM in [3]; above 100 µM in experiment [10]; above 100 µM in [4]; above 100 µM in experiment [5]. The TGI in experiment [6], in [7] and in [8] was above 100 µM in each case.

Regarding `Fc1cccc(F)c1C(Nc1nncs1)Nc1nncs1`, the TGI in [2], in [3], in [10], in experiment [4], in experiment [5] and in experiment [6] was above 100 µM each time. For the same compound, the TGI in experiment [7], in experiment [8] and in [9] was above 100 µM throughout.

`CN=C1OC2(c3ccccc3)C3=C(OC(=NC)N2C)C(=O)OC3(c2ccccc2)N1C` (stereo not given): the TGI in experiment [1], in experiment [2], in experiment [3], in experiment [10], in [4] and in experiment [5] was above 100 µM each time. The TGI in experiment [6], in experiment [7] and in [8] was above 100 µM throughout.

For `Cc1[nH]nc(-c2ccon2)c1N=O`, the TGI stood at 34.7 µM in experiment [2]; 34.6 µM in experiment [3]; 28.4 µM in experiment [10]; 42.8 µM in experiment [4]; 63.2 µM in experiment [5]; 37.6 µM in experiment [6]. The TGI amounted to 34.7 µM in experiment [7], 70.3 µM in experiment [8] and 17.1 µM in experiment [9].
